# Measurements from patent publication US8889651B2, “Trehalose derivatives, preparation method and uses thereof” (Joyochem Co., Ltd., priority 2010, dated 2014).
# Read-outs that look alike come from different tables or passages of the source.
# Experiments:
# normal cells = conditions: background statement; cited from earlier work
# [1] = test system: colon cancer 26-L5 cell invasion; test: recombinant basement membrane invasion experiment (Transwell/Matrigel); type: cell-based; conditions: for IC50 / IC50 (μg/mL): inhibition of colon cancer 26-L5 cell invasion
# Procedure: Invasion and metastasis are basic characteristics of malignant tumors. During the tumor metastasis process, the tumor cell invasion into a basement membrane is an important link. A conventional recombinant basement membrane invasion experiment is adopted, a natural product Brartemicin is taken as positive control, and the inhibition action of trehalose derivatives against colon cancer 26-L5 cell invasion activity is determined.
# Polycarbonate membrane 8 μm (Nucleopore, Pleasanton, Calif., USA); Transwell cell culture chamber (Costar 3422, Cambridge, Mass., USA); fibronectin (FN; Collaborative Research Inc., Bedford, Mass., USA); Matrigel (Collaborative Research Inc., Bedford, Mass., USA); RPMI1640 culture medium containing 1% of fetal calf serum (FCS) (Collaborative Research Inc., Bedford, Mass., USA); and hematoxylin-eosin (HE) staining kit (Collaborative Research Inc., Bedford, Mass, USA).
# 20 μg of fibronectin is smeared on the lower layer of a Transwell cell culture chamber, and 5 μg of Matrigel is smeared on the upper layer. Colon cancer 26-L5 cells in an exponential growth phase are suspended in an RPMI1640 culture medium containing 1% of fetal calf serum (FCS), which contains different concentrations of the trehalose derivatives or different concentrations of Brartemicin. […] The filter ester membranes contain the colored colon cancer 26-L5 cells after invasion. The ester membranes are placed on glass slides and are subjected to permeabilization by xylene, neutral resin is used for sealing, and the invasion cells are counted under a 400× microscope. The number of the penetrating cells of each membrane is counted from five different visual fields, namely upper, lower, left, right and middle visual fields, the average value is calculated, and three filter membranes are arranged in parallel in each group.
# The natural product Brartemicin is taken as the positive control, the inhibition action of the trehalose derivatives against the colon cancer 26-L5 cell invasion activity is determined, and the activity experiment results are as shown in the following Table 1.
# [2] = test system: colon cancer 26-L5 cell invasion; conditions: background statement; read-out: anti-colon cancer 26-L5 cell invasion activity IC50; cited from earlier work
smiles,measurement,setting,value
Cc1cc(O)cc(O)c1C(=O)OC[C@H]1O[C@H](O[C@H]2O[C@H](COC(=O)c3c(C)cc(O)cc3O)[C@@H](O)[C@H](O)[C@H]2O)[C@H](O)[C@@H](O)[C@@H]1O [Brartemicin],toxicity against normal cells,normal cells,no toxicity against normal cells
same,IC50,"[1]; incubation 6-8 hours, read-out: IC50",0.25 µg/mL
same,IC50,[2],390 nM
"COc1ccccc1C(=O)OCC1OC(OC2OC(COC(=O)c3ccccc3OC)C(O)C(O)C2O)C(O)C(O)C1O [Compound 3a, 6,6′-bis(2-methoxybenzoyl)-α,α-D-trehalose]",anti-colon cancer 26-L5 cell invasion activity (in words),[1],strong anti-colon cancer 26-L5 cell invasion activity
"Cc1ccccc1C(=O)OC[C@H]1O[C@H](O[C@H]2O[C@H](COC(=O)c3ccccc3C)[C@@H](O)[C@H](O)[C@H]2O)[C@H](O)[C@@H](O)[C@@H]1O [Compound 3b, 6,6″-bis(2-methylbenzoyl)-α,α-D-trehalose]",IC50 (μg/mL),[1]; incubation 6-8 hours,NA (NA: no activity when IC50 is 10 μg/mL)
"COc1ccc(C(=O)OC[C@H]2O[C@H](O[C@H]3O[C@H](COC(=O)c4ccc(OC)cc4)[C@@H](O)[C@H](O)[C@H]3O)[C@H](O)[C@@H](O)[C@@H]2O)cc1 [Compound 3c, 6,6′-bis(4-methoxybenzoyl)-α,α-D-trehalose]",IC50 (μg/mL),[1]; incubation 6-8 hours,NA (NA: no activity when IC50 is 10 μg/mL)
O=C(OCC1OC(OC2OC(COC(=O)c3ccc(O)cc3)C(O)C(O)C2O)C(O)C(O)C1O)c1ccc(O)cc1 (stereo not drawn) [Compound 3d],anti-colon cancer 26-L5 cell invasion activity (in words),[1],strong anti-colon cancer 26-L5 cell invasion activity
COc1cccc(C(=O)OC[C@H]2O[C@H](O[C@H]3O[C@H](COC(=O)c4cccc(OC)c4OC)[C@@H](O)[C@H](O)[C@H]3O)[C@H](O)[C@@H](O)[C@@H]2O)c1OC [Compound 3e],activity compared with the natural product Brartemicin,[1],stronger activity than the natural product Brartemicin
same,anti-colon cancer 26-L5 cell invasion activity (in words),[1],strong anti-colon cancer 26-L5 cell invasion activity
same,IC50,[1]; incubation 6-8 hours,0.10 µg/mL
same,IC50,"[1]; same value given in μM, read-out: IC50",0.15 µM
O=C(OCC1OC(OC2OC(COC(=O)c3c(F)cccc3F)C(O)C(O)C2O)C(O)C(O)C1O)c1c(F)cccc1F (stereo not drawn) [Compound 3f],anti-colon cancer 26-L5 cell invasion activity (in words),[1],strong anti-colon cancer 26-L5 cell invasion activity
Cc1cccc(N)c1C(=O)OC[C@H]1O[C@H](O[C@H]2O[C@H](COC(=O)c3c(C)cccc3N)[C@@H](O)[C@H](O)[C@H]2O)[C@H](O)[C@@H](O)[C@@H]1O [Compound 3g],anti-colon cancer 26-L5 cell invasion activity (in words),[1],strong anti-colon cancer 26-L5 cell invasion activity
COc1cc(C(=O)OCC2OC(OC3OC(COC(=O)c4ccc(F)c(OC)c4)C(O)C(O)C3O)C(O)C(O)C2O)ccc1F (stereo not drawn) [Compound 3h],IC50 (μg/mL),[1]; incubation 6-8 hours,NA (NA: no activity when IC50 is 10 μg/mL)
COc1cc(C(=O)OC[C@H]2O[C@H](O[C@H]3O[C@H](COC(=O)c4cc(OC)c(OC)c(OC)c4)[C@@H](O)[C@H](O)[C@H]3O)[C@H](O)[C@@H](O)[C@@H]2O)cc(OC)c1OC [Compound 3i],IC50 (μg/mL),[1]; incubation 6-8 hours,NA (NA: no activity when IC50 is 10 μg/mL)
